Measurements as given in ChEMBL document CHEMBL1121774, “Interaction of 5-ethynyl-2'-deoxyuridylate with thymidylate synthetase” (J Med Chem, 1981).

Tests used:
[1] = molecular target: T1, Thymidylate synthase (Lactobacillus casei) (UniProt P00469); experiment: Binding of 0.1 mM [14C]5,10-CH2-H4 folate to 2.5 nmol dTMP synthetase from Lactobacillus casei; conditions: Lacticaseibacillus casei
T1 sequence (whole entry): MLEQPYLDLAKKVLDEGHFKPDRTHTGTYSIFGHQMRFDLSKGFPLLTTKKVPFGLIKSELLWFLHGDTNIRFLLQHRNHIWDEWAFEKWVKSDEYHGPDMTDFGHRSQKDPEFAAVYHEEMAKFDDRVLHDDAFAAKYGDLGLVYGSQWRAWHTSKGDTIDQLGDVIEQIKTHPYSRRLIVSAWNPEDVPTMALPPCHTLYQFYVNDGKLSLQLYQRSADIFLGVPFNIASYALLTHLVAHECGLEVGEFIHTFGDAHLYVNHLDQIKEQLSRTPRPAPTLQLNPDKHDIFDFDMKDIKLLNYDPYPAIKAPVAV

Thymidylate synthase = molecular target: T2, Thymidylate synthase (Lactobacillus casei, UniProt P00469); experiment: The compound was tested for inhibition of dTMP synthetase from Lactobacillus casei; set-up: species or system Lacticaseibacillus casei
T2 sequence (P00469 whole entry): T1 sequence (whole entry)

Row | Compound | dpm bound to protein [1] | Ki (Thymidylate synthase) [µM]
1 | O=c1[nH]c(=O)n([C@H]2C[C@H](O)[C@@H](COP(=O)(O)O)O2)cc1F | 15500 | 
2 | C#Cc1cn([C@H]2C[C@H](O)[C@@H](COP(=O)(O)O)O2)c(=O)[nH]c1=O | 1110 | 2.7
